Source: ChEMBL document CHEMBL4428075, “New antiproliferative 7-(4-(N-substituted carbamoylmethyl)piperazin-1-yl) derivatives of ciprofloxacin induce cell cycle arrest at G2/M phase” (Bioorg Med Chem, 2016)
pIC50: −log10 of the molar value. Activity calls are given as the source filed them. The rule behind the calls is not given here.

Assays:
[1] = system: A549; experiment: Induction of cell cycle arrest in human A549 cells assessed accumulation at G2/M phase at 25 uM after 24 hrs by FITC-labeled anti-BrdU antibody/7AAD staining based FACS calibur flow cytometric analysis (reference value: 12%); format: functional
[2] = system: A549; experiment: Induction of cell cycle arrest in human A549 cells assessed as accumulation at sub G1 phase at 15 uM after 24 hrs by FITC-labeled anti-BrdU antibody/7AAD staining based FACS calibur flow cytometric analysis (reference value: 0.82 %); format: functional
[3] = system: HOP-62; experiment: Antiproliferative activity against human HOP62 cells at 10^-5 M after 48 hrs by SRB assay; format: functional; conditions: HOP-62, 48 h, read-out: GI
[4] = system: A549; experiment: Induction of cell cycle arrest in human A549 cells assessed accumulation at G2/M phase at 25 uM after 24 hrs in presence of PFTalpha by FITC-labeled anti-BrdU antibody/7AAD staining based FACS calibur flow cytometric analysis (reference value: 63.9%); format: functional
[5] = system: PC-3; experiment: Antiproliferative activity against human PC3 cells at 10^-5 M after 48 hrs by SRB assay; format: functional; conditions: PC-3, 48 h, read-out: GI
[6] = system: NCI-H226; experiment: Antiproliferative activity against human NCI-H226 cells at 10^-5 M after 48 hrs by SRB assay; format: functional; conditions: NCI-H226, 48 h, read-out: GI
[7] = system: RXF 393; experiment: Antiproliferative activity against human RXF393 cells at 10^-5 M after 48 hrs by SRB assay; format: functional; conditions: RXF 393, 48 h, read-out: GI
[8] = system: Hs-578T; experiment: Antiproliferative activity against human Hs 578T cells at 10^-5 M after 48 hrs by SRB assay; format: functional; conditions: read-out: GI
[9] = system: UACC-257; experiment: Antiproliferative activity against human UACC257 cells at 10^-5 M after 48 hrs by SRB assay; format: functional; conditions: UACC-257, 48 h, read-out: GI
[10] = system: HL-60(TB); experiment: Antiproliferative activity against human HL-60(TB) cells at 10^-5 M after 48 hrs by SRB assay; format: functional; conditions: HL-60, 48 h, read-out: GI
[11] = system: SK-MEL-5; experiment: Antiproliferative activity against human SK-MEL-5 cells at 10^-5 M after 48 hrs by SRB assay; format: functional; conditions: SK-MEL-5, 48 h, read-out: GI
[12] = system: A549; experiment: Downregulation of cyclinB1 expression in human A549 cells after 24 hrs by Western blot analysis; format: functional, cell-based
[13] = system: HOP-92; experiment: Antiproliferative activity against human HOP92 cells at 10^-5 M after 48 hrs by SRB assay; format: functional; conditions: HOP-92, 48 h, read-out: GI
[14] = system: DU-145; experiment: Antiproliferative activity against human DU145 cells at 10^-5 M after 48 hrs by SRB assay; format: functional; conditions: DU-145, 48 h, read-out: GI
[15] = system: A549; experiment: Induction of cell cycle arrest in human A549 cells assessed as accumulation at G1 phase at 25 uM after 24 hrs by FITC-labeled anti-BrdU antibody/7AAD staining based FACS calibur flow cytometric analysis (reference value: 65.9 %); format: functional
[16] = system: A549; experiment: Induction of cell cycle arrest in human A549 cells assessed as accumulation at G1 phase at 10 uM after 24 hrs by FITC-labeled anti-BrdU antibody/7AAD staining based FACS calibur flow cytometric analysis (reference value: 65.9 %); format: functional
[17] = system: A549; experiment: Downregulation of cdc2 expression in human A549 cells after 24 hrs by Western blot analysis; format: functional, cell-based
[18] = system: LOX IMVI; experiment: Antiproliferative activity against human LOXIMVI cells at 10^-5 M after 48 hrs by SRB assay; format: functional; conditions: read-out: GI
[19] = system: A549; experiment: Induction of p21 expression in human A549 cells at 25 uM after 24 hrs in presence of PFTalpha by Western blot analysis; format: functional, cell-based
[20] = system: TK-10; experiment: Antiproliferative activity against human TK10 cells at 10^-5 M after 48 hrs by SRB assay; format: functional; conditions: TK-10, 48 h, read-out: GI
[21] = system: BT-549; experiment: Antiproliferative activity against human BT549 cells at 10^-5 M after 48 hrs by SRB assay; format: functional; conditions: BT-549, 48 h, read-out: GI
[22] = system: A549; experiment: Induction of cell cycle arrest in human A549 cells assessed as accumulation at S phase at 5 uM after 24 hrs by FITC-labeled anti-BrdU antibody/7AAD staining based FACS calibur flow cytometric analysis (reference value: 20.9 %); format: functional
[23] = system: MDA-MB-435; experiment: Antiproliferative activity against human MDA-MB-435 cells at 10^-5 M after 48 hrs by SRB assay; format: functional; conditions: MDA-MB-435, 48 h, read-out: GI
[24] = system: A549; experiment: Induction of cell cycle arrest in human A549 cells assessed as accumulation at S phase at 25 uM after 24 hrs by FITC-labeled anti-BrdU antibody/7AAD staining based FACS calibur flow cytometric analysis (reference value: 20.9 %); format: functional
[25] = system: KM12; experiment: Antiproliferative activity against human KM12 cells at 10^-5 M after 48 hrs by SRB assay; format: functional; conditions: KM12, 48 h, read-out: GI
[26] = system: A549; experiment: Induction of cell cycle arrest in human A549 cells assessed as accumulation at G1 phase at 15 uM after 24 hrs by FITC-labeled anti-BrdU antibody/7AAD staining based FACS calibur flow cytometric analysis (reference value: 65.9 %); format: functional
[27] = system: HCC 2998; experiment: Antiproliferative activity against human HCC2998 cells at 10^-5 M after 48 hrs by SRB assay; format: functional; conditions: HCC 2998, 48 h, read-out: GI
[28] = system: SF-539; experiment: Antiproliferative activity against human SF539 cells at 10^-5 M after 48 hrs by SRB assay; format: functional; conditions: SF-539, 48 h, read-out: GI
[29] = system: SW-620; experiment: Antiproliferative activity against human SW620 cells at 10^-5 M after 48 hrs by SRB assay; format: functional; conditions: SW-620, 48 h, read-out: GI
[30] = system: A549; experiment: Antiproliferative activity against human A549 cells after 24 hrs by BrdU incorporation assay; format: functional, cell-based; conditions: A549, 24 h
[31] = system: A549; experiment: Induction of cell cycle arrest in human A549 cells assessed as accumulation at sub G1 phase at 10 uM after 24 hrs by FITC-labeled anti-BrdU antibody/7AAD staining based FACS calibur flow cytometric analysis (reference value: 0.82 %); format: functional
[32] = system: CAKI-1; experiment: Antiproliferative activity against human Caki1 cells at 10^-5 M after 48 hrs by SRB assay; format: functional; conditions: CAKI-1, 48 h, read-out: GI
[33] = system: NCI-H322M; experiment: Antiproliferative activity against human NCI-H322M cells at 10^-5 M after 48 hrs by SRB assay; format: functional; conditions: read-out: GI
[34] = system: MOLT-4; experiment: Antiproliferative activity against human MOLT4 cells at 10^-5 M after 48 hrs by SRB assay; format: functional; conditions: MOLT-4, 48 h, read-out: GI
[35] = system: A549; experiment: Induction of cell cycle arrest in human A549 cells assessed as accumulation at G1 phase at 5 uM after 24 hrs by FITC-labeled anti-BrdU antibody/7AAD staining based FACS calibur flow cytometric analysis (reference value: 65.9 %); format: functional

Row | Structure (SMILES) | inhibition of growth at 10 µM [3] [%] | inhibition of growth at 10 µM [5] [%] | inhibition of growth at 10 µM [6] [%] | inhibition of growth at 10 µM [7] [%] | inhibition of growth at 10 µM [8] [%] | inhibition of growth at 10 µM [9] [%] | inhibition of growth at 10 µM [10] [%] | inhibition of growth at 10 µM [11] [%] | inhibition of growth at 10 µM [13] [%] | inhibition of growth at 10 µM [14] [%] | inhibition of growth at 10 µM [18] [%] | inhibition of growth at 10 µM [21] [%] | inhibition of growth at 10 µM [23] [%] | inhibition of growth at 10 µM [25] [%] | inhibition of growth at 10 µM [27] [%] | inhibition of growth at 10 µM [28] [%] | inhibition of growth at 10 µM [29] [%] | pIC50 [30] | inhibition of growth at 10 µM [32] [%] | inhibition of growth at 10 µM [33] [%] | other results
1 | O=C(CN1CCN(c2cc3c(cc2F)c(=O)c(C(=O)O)cn3C2CC2)CC1)Nc1ccc(Cl)cc1 | 28.3 | 19.9 | 19.9 | 25.3 | 12.3 | 43 | 10.5 | 28.9 | 21.1 | 0.9 | 38.9 | 44.2 | 11.7 | 17.1 | 14.2 | 13.1 | 0 | 4.83 | 32.8 | 47.2 | Activity [1]: 63.9%; Activity [2]: 3.28%; Activity [4]: 23.7%; Activity [12]: Dose-dependent effect; Activity [15]: 24.8%; Activity [16]: 58.5%; Activity [17]: Dose-dependent effect; Activity [19]: inactive; inhibition of growth at 10 µM [20]: 13.9%; Activity [22]: 16.2%; Activity [24]: 10.5%; Activity [26]: 46%; Activity [31]: 4.19%; inhibition of growth at 10 µM [34]: 3.53%; Activity [35]: 68.9%
2 | COc1ccc(NC(=O)CN2CCN(c3cc4c(cc3F)c(=O)c(C(=O)O)cn4C3CC3)CC2)cc1 | 13 | 11.6 | 16.8 | 11.8 | 5.32 | 16.9 | 0 | 3.22 | 5.92 | 0 | 39 | 5.78 | 1.51 | 6.61 | 0 | 5.31 | 0 | 4.61 | 0 | 26.4 | inhibition of growth at 10 µM [34]: 0%
3 | COc1cc(NC(=O)CN2CCN(c3cc4c(cc3F)c(=O)c(C(=O)O)cn4C3CC3)CC2)cc(OC)c1OC | 8.5 | 14.5 | 0 | 0 | 4.61 | 3.24 | 8.4 | 0 | 18.7 | 0 | 16.1 | 7.42 | 0 | 0 | 0 | 0 | 0 | < 4.00 | 0 | 0 | inhibition of growth at 10 µM [20]: 10.5%; inhibition of growth at 10 µM [34]: 0%
